Measured values as given in ChEMBL document CHEMBL3994614, “Novel flavonolignan hybrid antioxidants: From enzymatic preparation to molecular rationalization” (Eur J Med Chem, 2017).
Calls of active or inactive are those of the source. The rule behind the calls is not given here.

Columns and labels:
[1] = Antioxidant activity assessed as trolox equivalent of ABTS radical scavenging activity at 100 uM measured at >= 5 mins in presence of silybin; assay type: functional
[2] = Antiradical activity assessed as gallic acid equivalents of Foline-Ciocalteu reagent reducing capacity at 1 mM preincubated for 5 mins followed by Na2CO3 addition measured after 90 mins in presence of silybin
HepG2 [3] = assay: Cytotoxicity against human HepG2 cells assessed as reduction in cell viability up to 10 uM after 4 hrs by MTT assay; assay type: cell-based; conditions: hepg2, 4 h
[4] = Antioxidant activity assessed as DPPH radical scavenging activity after 30 mins by spectrophotometric method; assay type: functional
[5] = Antioxidant activity assessed as trolox equivalent of ABTS radical scavenging activity at 100 uM measured at >= 5 mins; assay type: functional
HepG2 [6] = assay: Cytoprotective activity against tert-butyl hydroperoxide-induced decrease in cell viability in human HepG2 cells at 5 uM pretreated for 1 hr followed by co-treatment with tert-butyl hydroperoxide for 3 hrs in presence of silybin by MTT assay; assay type: functional, cell-based
[7] = Antiradical activity assessed as gallic acid equivalents of Foline-Ciocalteu reagent reducing capacity at 1 mM preincubated for 5 mins followed by Na2CO3 addition measured after 90 mins
[8] = Antioxidant activity assessed as DPPH radical scavenging activity after 30 mins in presence of silybin by spectrophotometric method; assay type: functional
HepG2 [9] = assay: Cytoprotective activity against tert-butyl hydroperoxide-induced toxicity in human HepG2 cells assessed as cell viability at 5 uM pretreated for 1 hr followed by co-treatment with tert-butyl hydroperoxide for 3 hrs by MTT assay (reference value: 22%); assay type: functional
HepG2 [10] = assay: Cytoprotective activity against tert-butyl hydroperoxide-induced toxicity in human HepG2 cells assessed as cell viability at 5 uM pretreated for 1 hr followed by tert-butyl hydroperoxide addition for 3 hrs by MTT assay (reference value: 16%); assay type: functional
Liver [11] = assay: Antioxidant activity against tert-butyl hydroperoxide-induced lipoperoxidation in rat liver microsomal membranes at 50 uM preincubated for 10 mins followed by tert-butyl hydroperoxide addition measured after 60 mins by TBARS assay relative to control; assay type: functional, cell membranes; conditions: Microsomal Membrane
Liver [12] = assay: Antioxidant activity against tert-butyl hydroperoxide-induced lipoperoxidation in rat liver microsomal membranes at 1 mM preincubated for 10 mins followed by tert-butyl hydroperoxide addition measured after 60 mins by TBARS assay relative to control; assay type: functional, cell membranes; conditions: Microsomal Membrane
Liver [13] = assay: Antioxidant activity against tert-butyl hydroperoxide-induced lipoperoxidation in rat liver microsomal membranes preincubated for 10 mins followed by tert-butyl hydroperoxide addition measured after 60 mins in presence of silybin by TBARS assay; assay type: functional, cell membranes, Microsomal Membrane
Liver [14] = assay: Antioxidant activity against tert-butyl hydroperoxide-induced lipoperoxidation in rat liver microsomal membranes preincubated for 10 mins followed by tert-butyl hydroperoxide addition measured after 60 mins by TBARS assay; assay type: functional, cell membranes, Microsomal Membrane
[15] = Electro-oxidation activity at glassy carbon electrode in pH 5 acetate buffer at 50 uM by square-wave voltammetry
Liver [16] = assay: Antioxidant activity against tert-butyl hydroperoxide-induced lipoperoxidation in rat liver microsomal membranes preincubated for 10 mins followed by tert-butyl hydroperoxide addition measured after 60 mins in presence of L-ascorbic acid by TBARS assay; assay type: functional, cell membranes, Microsomal Membrane
[17] = Antioxidant activity assessed as DPPH radical scavenging activity after 30 mins in presence of L-ascorbic acid by spectrophotometric method; assay type: functional
[18] = Antioxidant activity assessed as trolox equivalent of ABTS radical scavenging activity at 100 uM measured at >= 5 mins in presence of L-ascorbic acid; assay type: functional
[19] = Antiradical activity assessed as gallic acid equivalents of Foline-Ciocalteu reagent reducing capacity at 1 mM preincubated for 5 mins followed by Na2CO3 addition measured after 90 mins in presence of L-ascorbic acid
HepG2 [20] = assay: Cytoprotective activity against tert-butyl hydroperoxide-induced decrease in cell viability in human HepG2 cells at 5 uM pretreated for 1 hr followed by co-treatment with tert-butyl hydroperoxide for 3 hrs in presence of L-ascorbic acid by MTT assay; assay type: functional, cell-based
[21] = Electro-oxidation activity at glassy carbon electrode in pH 2 to 12 at 50 uM by square-wave voltammetry
[22] = Aqueous solubility of the compound in buffer solution; assay type: physicochemical

| IC50 [4] | IC50 (Liver [14]) | Structure (SMILES) | Activity (HepG2 [3]) | Activity [5] | Activity [7] | Activity [15] | further results |
| --- | --- | --- | --- | --- | --- | --- | --- |
| 2.76 µM | > 1000 µM | O=C1O[C@H]([C@@H](O)CO)C(O)=C1O [ASCORBIC ACID] | Non-Toxic | 0.57 equiv | 0.51 equiv | – | Activity [1]: 0.42 equiv; Activity [2]: 0.25 equiv; Activity (HepG2 [6]): inactive; IC50 [8]: 2.94 µM; Activity (HepG2 [9]): inactive; Activity (HepG2 [10]): inactive; inhibition (Liver [11]): 139%; inhibition (Liver [12]): 13%; IC50 (Liver [13]): 56.5 µM |
| 3.58 µM | – | Cc1c(C)c2c(c(C)c1O)CCC(C)(CO)O2 (stereo not given) | – | – | – | – | – |
| 3.5 µM | 72.9 µM | COc1cc([C@H]2Oc3cc([C@H]4Oc5cc(O)cc(O)c5C(=O)[C@@H]4O)ccc3O[C@@H]2COC(=O)CCCCCCCCCCC(=O)OCC2(C)CCc3c(C)c(O)c(C)c(C)c3O2)ccc1O (stereo not given in full) | – | 0.24 equiv | 0.15 equiv | inactive | – |
| 244 µM | 77.1 µM | COc1cc(C2Oc3cc([C@H]4Oc5cc(O)cc(O)c5C(=O)[C@@H]4O)ccc3OC2CO)ccc1O (stereo not given in full) [SILIBININ] | Non-Toxic | 0.78 equiv | 0.92 equiv | inactive | IC50 (Liver [16]): 56.5 µM; IC50 [17]: 2.94 µM; Activity [18]: 0.42 equiv; Activity [19]: 0.25 equiv; Activity (HepG2 [9]): inactive; Activity (HepG2 [10]): inactive; Activity (HepG2 [20]): inactive |
| 20.6 µM | 30.2 µM | COc1cc([C@H]2Oc3cc([C@H]4Oc5cc(O)cc(O)c5C(=O)[C@@H]4O)ccc3O[C@@H]2COC(=O)CCCCCCCCCCC(=O)OC[C@H](O)[C@H]2OC(=O)C(O)=C2O)ccc1O | Non-Toxic | 1.32 equiv | 0.65 equiv | Active | Activity [21]: Active; viability at 5 µM (HepG2 [9]; read-out: Activity): 43%; viability at 5 µM (HepG2 [10]; read-out: Activity): 27% |
| 372 µM | 111 µM | C=COC(=O)CCCCCCCCCCC(=O)OC[C@H]1Oc2ccc([C@H]3Oc4cc(O)cc(O)c4C(=O)[C@@H]3O)cc2O[C@@H]1c1ccc(O)c(OC)c1 | – | 0.93 equiv | 0.15 equiv | inactive | solubility [22]: Insoluble |
| 253 µM | > 1000 µM | COc1cc([C@H]2Oc3cc([C@H]4Oc5cc(O)cc(O)c5C(=O)[C@@H]4O)ccc3O[C@@H]2COC(=O)CCCCCCCCCCC(=O)OCCc2ccc(O)cc2)ccc1O | – | 0.33 equiv | 0.17 equiv | inactive | inhibition (Liver [12]): 17% |
| – | – | C=COC(=O)CCCCCCCCCCC(=O)OC=C | – | – | – | inactive | – |
